The results in this text go back to US9415084B2, “Treatment of leaky or damaged tight junctions and enhancing extracellular matrix” (Arch Biosurgery, Inc., priority 2007, dated 2016).

Where “and” joins values, the source holds several entries; their conditions need not be identical. Identical values can stand only once.

In one data set the test system is spinal cord. The data set is described as follows: Hemostasis in a spinal cord injury (T2 hemisection). The format is in vivo, rat. The settings on record: adult rats, 20 μl of 1% solution. The protocol:
Under an operating microscope, the second thoracic spinal cord segment (T2) was identified before performing a dorsal laminectomy in anesthetized adult rats. After opening the dura mater, a right hemisection was performed using a ceramic knife. Immediately after the cord hemisection 20 μl of 1% solution of RADA16-I (SEQ ID NO: 60) (NHS-1) was applied to the area of the cut for bleeding control. The controls received a saline treatment. The animals were allowed to survive for up to 8 weeks as part of another experiment. The spinal environment and the brain environment were investigated for similarities or differences. Secondary damage caused by surgery can be reduced by quickly bringing bleeding under control. After laminectomy and removal of the dura, the spinal cord was hemisected at T2, from the dorsal to ventral aspect and treated (N=5) with 20 μl of 1% NHS-1. […] In the saline controls (n=5) it took on average 163 seconds to stop bleeding (FIG. 3a).

For the next data set, the system named is brain. To be noted: rat, in vivo.
In data set [1] the test system is liver. The data set is described as follows: Hemostasis in liver 4 mm punch biopsy. The class given is in vivo. To be noted: rats allowed to survive for up to 6 months after 3% treatment. Here is the method: In another group of anesthetized adult rats, the liver was exposed and a 4 mm punch biopsy from the ventral aspect through the liver to the dorsal surface of the left liver lobe. The resulting core was removed from the liver and one of three treatments was applied. In one treatment, 200 μl of a 3% NHS-1 solution was applied to the site of injury. In one control saline was applied to the site of injury. In a second control, the injury surface was cauterized. The superficial material was then wiped clear of the injury site. […]
In the third experiment using adult rats (n=45) 4 mm holes were punched through the left lateral lobe and then the area was treated with 3% NHS-1, saline or heat cautery to bring about hemostasis (FIG. 3b). […] In the heat cautery control group (n=15) cessation of bleeding took more than 60 seconds, inclusive of applying heat to cauterize the inside surface of the punch. […] Using ANOVA there was a significant difference between the 3% NHS-1 treatment and the controls (p<0.0001).

The next data set has as its system brain, lung, or liver. Briefly: Examination of treated animals for thrombi. The class given is in vivo.
The subject of data set [2] is liver. To be noted: rat, in vivo.
Protocol: In the brain and liver of anesthetized adult rats 1% or 2% of NHS-1 was injected immediately after making a cut and the treatment site was sampled. Samples were fixed in a mixture of 2% para-formaldehyde and 2.5% glutaraldehyde in 0.1M PB for 4 hours. The samples were washed in 0.1M PB buffer 10 min×3 at 4° C. and embedded in 2% agar. Agar blocks were post fixed in 1% osmium tetroxide for 2 hrs at 4° C. and then washed in buffer for 10 min×3 at 4° C. The sample blocks were dehydrated in ethanol infiltrated and embedded in pure epon with Lynx EM tissue processor. Ultra-thin 70 nm sections were cut (Reichert-Jung ultra cut) and collected on #200 mesh grids. Sections and grids were stained with uranyl acetate and lead citrate and examined under Philip EM208S transmission electron microscope.
Still looking for mechanism clues as well as further understanding of the relationship of the NHS-1 blood/tissue interface in both the brain and liver, the treated tissues were examined under the transmission electron microscope (TEM), to determine how the red blood cells (RBCs), platelets, tissue and the ECM interact with the material.
A 1% NHS-1 solution was applied to a liver wound and immediately harvested the tissue.
The test system of the next data set is femoral artery. The data set is described as follows: Hemostasis in a high pressure femoral artery wound. The format is in vivo, rat. To be noted: two cases, data not shown. Here is the method:
Rats were placed on their backs and the hind limb was extended to expose the medial aspect of the thigh (FIG. 4b). The skin was removed and the overlying muscles were cut to expose the femoral artery and sciatic nerve. The femoral artery was cut to produce a high pressure bleeder. With a 27 gauge needle, 200 μl of 1% RADA16-I (SEQ ID NO: 60) (NHS-1) solution was applied over the site of injury. In two cases powder was applied to the injury site which also worked. (Data not shown and was not included in the analysis). Controls were treated with a combination of saline and pressure with a […]. All animals were sacrificed four hours after the experiment. The femoral artery of 14 adult rats was surgically exposed, transected and then treated with 200 μl of 1% solution of NHS-1 or iced saline and packing. The treated cases (n=10) took about 10 seconds to achieve hemostasis (FIG. 3a). The controls (n=4) continued to bleed more than 6 minutes. The difference in times to achieve complete hemostasis was highly significant (Student t test p<0.0001).

In data set [3] the test system is liver. The data set is described as follows: Hemostasis in liver transverse cut severing a branch of the portal vein. The class given is in vivo. To be noted: rat liver transverse cut. Here is the method:
Rats were anesthetized and placed on their back and the abdomen was opened exposing the liver (FIG. 4c). The left lobe of the liver was cut using a scalpel in the rostral to caudal direction separating the two halves of the lobe in the sagittal cut. With a 27 gauge needle, 100 μl of 1% or 2%, of RADA16-I (SEQ ID NO: 60) (NHS-1), RADA-12 (NHS-2), or EAK-16 (TM-3) solution was applied to the site of injury. Livers of the controls were treated with saline or cauterized. Cauterization was performed using a thermal cautery device and was applied to entire surface of the injury. In another group of adult rats the same procedure was followed for the liver, which was cut transversely (FIG. 4d). With a 27 gauge needle, 400 μl of 1%, 2%, 3%, or 4% of NHS-1, or TM-3 solution was applied to the site of injury.
In the second experiment a major branch of the portal vein was severed while making a transverse cut in the left lobe to test NHS-1 in a high flow rate environment. Four concentrations of NHS-1 were tested (n=12) along with (n=4) control animals. 400 μl of 4% concentration NHS-1 was applied and bleeding stopped in 11 seconds. The test was successfully duplicated with 400 μl of both 3% and 2% NHS-1 solution; bleeding ceased in 10 and 10.3 seconds, respectively (FIG. 3d). When 400 μl of 1% NHS-1 was applied, bleeding continued for more than 60 seconds (FIG. 3d). The controls, however, bled for over 6 minutes. […] A significant difference was found between the NHS-1 treated and control groups using ANOVA.
The increased blood flow from the portal vein after making a transverse liver cut allowed the performance of another dose response experiment where various concentrations of NHS-1 (1% to 4%) and TM-3 (1% to 3%) could be compared with controls (FIG. 3d). All concentrations of NHS-1 were effective; however the higher blood pressure and flow rate after the transverse liver cut required a concentration of 2% or higher of NHS-1 to stop bleeding in less than 15 seconds.

For n-RADARADARADARADA-c [NHS-1], the time to hemostasis is 7.6 s in the data set with spinal cord; 10.3 s and 10.3 ± 0.5 s in the data set on liver [3] (400 μl of 2% solution); 10 s and 10.0 ± 1.0 s with liver [3] (400 μl of 3% solution); 11 s and 11.0 ± 1.0 s with liver [3] (400 μl of 4% solution). The “lysing of RBCs at the edges of the assembled material” value in the data set on brain is “no evidence of lysing”. The “platelet aggregation in the assembled material” value with brain is recorded as “no evidence of platelet aggregation”. Further, the “effect on the tissues in surviving animals” value in the data set on liver [1] was “no detrimental effect on the tissues”. Moreover, the “thrombi in the brain, lung, or liver” value with brain, lung, or liver is “no evidence of thrombi”. Further, in the data set on liver [2], the “lysing of RBCs at the interface” value was “no evidence of lysing”. Also, the “platelet aggregation at the blood/NHS-1 interface” value in the data set with liver [2] was “no evidence of platelet aggregation”. Also, the “hemostasis with powder applied to the injury site” value in the data set with femoral artery is on record as “also worked”. Also, in the data set with liver [3] (2%, 3% and 4% concentration), the “hemostasis after removing the excess assembled material” value is “complete hemostasis was maintained”. The “concentration required for complete hemostasis in less than 15 seconds” value in the data set with liver [3] (higher blood pressure/flow rate) is recorded as at least 2%. In addition, in the data set with liver [3] (NHS-1 1% to 4%, TM-3 1% to 3%), the “hemostatic effectiveness over the concentrations tested” value is reported as “effective”.
